Laboratory results from patent US9644240B2, “Disease susceptibility” (Leiden University, priority 2009, dated 2017).
Where a chain is given by its changes, count along the chain named.

Experiments:
four MR haplotypes = test: Ligand induced transactivation on a TAT-3 promoter in Cos-1 cells, comparison among haplotypes; format: cell-based, human; settings: for difference in transactivation responses among the four MR haplotypes: reporter (fluc)/control (rluc) ratios, three experiments pooled
Protocol: (§1) Cos-1 cells (African green monkey kidney cells) were cultured in DMEM high glucose supplemented with 10% FCS (Gibco, Paisley, UK). Cells were seeded in 24-well plates (Greiner Bio-One, Alphen a/d Rijn, The Netherlands) at 3×10^4 cells/well in DMEM supplemented with charcoal-stripped serum. The cells were transfected the next day using SuperFect (Qiagen, Venlo, The Netherlands). hMR plasmids and the reporter plasmid TAT3-Luc (tyrosine amino transferase triple hormone response element) were used at 100 ng/well. The control plasmid pCMV-R (Promega, Leiden, The Netherlands) coding for Renilla luciferase controlled by cytomegalovirus (CMV) promoter was used (10 ng/well). One day after transfection, the cells were treated with cortisol (Sigma-Aldrich, Zwijndrecht, the Netherlands) in concentrations ranging from 0 to 10^−8 M. After 24 h of incubation the cells were harvested in passive lyses buffer (Promega) and firefly and Renilla luciferase activity was determined using a dual label reporter assay (Promega) and a luminometer (CENTRO XS3 LB960, Berthold, Bad Wildbad, Germany). Three separate experiments were performed and all three experiments were performed in triplicate.
(§2) The in vitro experiments were analyzed using GraphPad prism 4 (GraphPad software Inc, San Diego, Calif.). In the transactivation assays firefly/renilla luciferase ratios were normalized against the highest signal and background expression was subtracted. MR protein expression measured by western blot was normalized against γ-Tubulin. The differences between the four hMR variants were analyzed with one and two-way ANOVAs with Bonferroni posttests. In the radioligand binding assay one-binding-site curve fitting was used to determine the dissociation constant (Kd) and maximal binding (Bmax). The specific MR cortisol binding was obtained by subtracting the non-specific binding from the total binding. The difference in Kd and Bmax between MRI180 and MR180V was tested with a t-test. In vitro results are shown as the mean±SD.

MR180V = biological target: T1, MR180V (Homo sapiens, UniProt P08235); test: [3H]Cortisol ligand binding assay, cytosol of transfected Cos-1 cells; settings: mean±SD
T1 construct: expressed in transfected cells; host or cells: Cos-1 cells (African green monkey kidney)
T1 sequence (P08235 1-984): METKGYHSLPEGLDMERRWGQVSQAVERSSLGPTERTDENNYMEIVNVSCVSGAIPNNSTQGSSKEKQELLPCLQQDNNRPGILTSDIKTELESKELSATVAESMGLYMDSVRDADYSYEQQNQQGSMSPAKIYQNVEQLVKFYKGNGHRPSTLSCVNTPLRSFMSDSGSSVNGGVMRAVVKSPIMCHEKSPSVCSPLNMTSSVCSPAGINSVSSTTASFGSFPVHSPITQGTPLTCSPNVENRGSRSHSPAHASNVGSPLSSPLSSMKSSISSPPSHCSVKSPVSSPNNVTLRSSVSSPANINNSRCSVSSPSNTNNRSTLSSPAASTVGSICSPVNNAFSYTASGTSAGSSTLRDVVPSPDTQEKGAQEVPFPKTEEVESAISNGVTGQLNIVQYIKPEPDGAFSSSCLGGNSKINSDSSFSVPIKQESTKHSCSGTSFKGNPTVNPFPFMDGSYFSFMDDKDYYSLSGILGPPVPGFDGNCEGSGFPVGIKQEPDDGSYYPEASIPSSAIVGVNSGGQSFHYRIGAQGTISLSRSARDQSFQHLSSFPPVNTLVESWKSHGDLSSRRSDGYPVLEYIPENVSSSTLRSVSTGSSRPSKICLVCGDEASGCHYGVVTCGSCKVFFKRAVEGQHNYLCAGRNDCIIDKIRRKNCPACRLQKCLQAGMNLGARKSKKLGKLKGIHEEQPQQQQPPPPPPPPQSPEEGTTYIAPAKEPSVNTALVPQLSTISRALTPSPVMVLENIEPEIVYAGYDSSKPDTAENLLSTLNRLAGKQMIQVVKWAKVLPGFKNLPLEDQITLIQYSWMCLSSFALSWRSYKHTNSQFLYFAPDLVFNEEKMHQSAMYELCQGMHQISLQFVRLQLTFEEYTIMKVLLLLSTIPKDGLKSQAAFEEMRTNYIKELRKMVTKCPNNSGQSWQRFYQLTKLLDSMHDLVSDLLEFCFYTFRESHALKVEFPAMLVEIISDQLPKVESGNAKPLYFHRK
Protocol: (§3) Cos-1 cells were seeded in 20 cm plates (Greiner Bio-One, Alphen a/d Rijn, The Netherlands) at 2×10^6 cells/plate in DMEM supplemented with 5% charcoal-stripped serum. Cells were transfected the next day using Mirus Transit-COS reagent according to the manufacturer's protocol (Sopachem, Ochten, The Netherlands) and hMR plasmids were used at 30 μg/plate. After 24 hours medium was replaced with serum free DMEM and after another 24 hours cells were pelleted. All further steps are carried out at 0° C. Cells were resuspended in 3.5 ml buffer (5 mM Tris-HCl (pH 7.4), 1 mM EDTA, 1 mM B-Mercaptoethanol, 10 mM Na-Molybdate, 5% glycerol) per plate and 3×15 seconds homogenised using an electric homogenizer (Pro200, Pro scientific, Oxford, Conn., USA). The homogenate was centrifuged (100.000×g, 2° C.) to obtain cytosol.
(§4) 200 μl cytosol was incubated with [^3H]Cortisol (70 Ci/mmol, Amersham, Buckinghamshire, UK) to asses total binding or [^3H]Cortisol and a 500 fold excess of dexamethasone (Sigma-Aldrich, Zwijndrecht, the Netherlands) to asses non-specific binding. [^3H]Cortisol was used at 0.5 nM, 1 nM, 1.5 nM, 2.5 nM, 3.5 nM, 5 nM. After vortexing and 3 hours incubation on ice bound and free [^3H]Cortisol fractions were separated by Sephadex LH-20 as described previously (de Kloet et al., 1975). Fractions containing the receptor bound radioligand were collected, vortexed with 3 ml Ultima Gold scintillation fluid (Perkin Elmer, Waltham, Mass., USA) and radioactivity was measured in a liquid scintillation analyzer (1900CA Packard, Perkin Elmer). Three separate experiments were performed and all three experiments were performed in triplicate.
as §2, with “binding.” for “binding. The difference in Kd and Bmax between MRI180 and MR180V was tested with a t-test. In vitro results are shown as the mean±SD.”

MRI180 = biological target: T2, MRI180 (Homo sapiens, UniProt P08235); test: as above; settings: MRI180, mean±SD
T2 construct: expressed in transfected cells; host or cells: Cos-1 cells (African green monkey kidney)
T2 sequence (P08235 1-984): T1 sequence (P08235 1-984)
Protocol: as §3, §4
as §2, with “binding.” for “binding. The difference in Kd and Bmax between MRI180 and MR180V was tested with a t-test. In vitro results are shown as the mean±SD.”

MR Hap 3 (CG) = biological target: T3, MR Hap 3 (CG) (Homo sapiens, UniProt P08235); test: Cortisol-induced transactivation assay, TAT3-Luc reporter in Cos-1 cells; format: cell-based; settings: TAT-3 promoter, 24 h, read-out: EC50 of cortisol-induced luciferase transcription
T3 construct: expressed in transfected cells; host or cells: Cos-1 cells (African green monkey kidney)
T3 sequence (P08235 1-984 V241A): T1 sequence (P08235 1-984) with V241A
Protocol: as §1
as §2, with “binding.” for “binding. The difference in Kd and Bmax between MRI180 and MR180V was tested with a t-test. In vitro results are shown as the mean±SD.”

MR Hap 4 (GG) = biological target: T4, MR Hap 4 (GG) (Homo sapiens, UniProt P08235); test: as above; format: cell-based; settings: TAT-3 promoter, 24 h, read-out: EC50 of cortisol-induced luciferase transcription
T4 construct: expressed in transfected cells; host or cells: Cos-1 cells (African green monkey kidney)
T4 sequence (P08235 1-984 V241A): T1 sequence (P08235 1-984) with V241A
Protocol: as §1
as §2, with “binding.” for “binding. The difference in Kd and Bmax between MRI180 and MR180V was tested with a t-test. In vitro results are shown as the mean±SD.”

MR Hap 1 (GA) = biological target: T5, MR Hap 1 (GA) (Homo sapiens, UniProt P08235); test: as above; format: cell-based; settings: TAT-3 promoter, 24 h, read-out: EC50 of cortisol-induced luciferase transcription
T5 construct: expressed in transfected cells; host or cells: Cos-1 cells (African green monkey kidney)
T5 sequence (P08235 1-984): T1 sequence (P08235 1-984)
Protocol: as §1
as §2, with “binding.” for “binding. The difference in Kd and Bmax between MRI180 and MR180V was tested with a t-test. In vitro results are shown as the mean±SD.”

MR Hap 2 (CA) = biological target: T6, MR Hap 2 (CA) (Homo sapiens, UniProt P08235); test: as above; format: cell-based; settings: TAT-3 promoter, 24 h, read-out: EC50 of cortisol-induced luciferase transcription
T6 construct: expressed in transfected cells; host or cells: Cos-1 cells (African green monkey kidney)
T6 sequence (P08235 1-984): T1 sequence (P08235 1-984)
Protocol: as §1
as §2, with “binding.” for “binding. The difference in Kd and Bmax between MRI180 and MR180V was tested with a t-test. In vitro results are shown as the mean±SD.”

[1] = three experiments pooled, read-out: dissociation constant (Kd) of cortisol binding

Compound | difference in transactivation responses among the four MR haplotypes (four MR haplotypes) | maximal binding (Bmax) of cortisol (MR180V) [binding sites/cell] | Kd (MR180V; [1]) [nM] | maximal binding (Bmax) of cortisol (MRI180) [binding sites/cell] | Kd (MRI180; [1]) [nM] | EC50 (MR Hap 3 (CG)) [nM] | EC50 (MR Hap 4 (GG)) [nM] | EC50 (MR Hap 1 (GA)) [nM] | EC50 (MR Hap 2 (CA)) [nM] | maximal luciferase expression (Emax) (four MR haplotypes; Hap 1 (GA) and 4 (GG) compared with Hap 2 (CA) and 3 (CG))
C[C@]12CCC(=O)C=C1CC[C@@H]1[C@@H]2[C@@H](O)C[C@]2(C=O)[C@@H](C(=O)CO)CC[C@@H]12 [Aldosterone] | did not show significantly different responses |  |  |  |  |  |  |  |  | 
C[C@]12CCC(=O)C=C1CC[C@@H]1[C@@H]2[C@@H](O)C[C@@]2(C)[C@H]1CC[C@]2(O)C(=O)CO [cortisol] | significantly different responses | 7112±371 | 0.93 ± 0.16 | 6539±499 | 0.86 ± 0.2 | 0.019 | 0.073 | 0.039 | 0.017 | significant lower maximal luciferase expression (Emax)
